These results are taken from PMC9017309, “Triazolopyrimidines Target Aerobic Respiration in Mycobacterium tuberculosis” (Antimicrobial Agents and Chemotherapy, 2022).

In one data set the test system is human HepG2 cells. Particulars: read-out: IC50 HepG2, Glucose; concentration reducing cell number by 50%, 3 days exposure, glucose as carbon source; cited from earlier work.
In data set [1] the test system is M. tuberculosis in human THP-1 macrophages. Put plainly: Activity against intracellular M. tuberculosis in THP-1 macrophages. The format is cell-based. Particulars: Mycobacterium tuberculosis, THP-1, 72 h, unit inferred, μM.
The nature of the next data set: in vitro. Particulars: human.
In the next data set the test system is M. tuberculosis. It is filed as cell-based, Mycobacterium tuberculosis. The note with it: normalized to DMSO control.
Data set [2] relates to M. tuberculosis H37Rv-LP (ATCC 25618). The experiment in a line: MIC in liquid medium, parental strain. The note with it: Mycobacterium tuberculosis, 120 h, n in brackets. The format is cell-based.
For data set [3] the test system is unchanged. The experiment in a line: microbe, parasite or virus in culture. It is filed as cell-based. The note with it: Mycobacterium tuberculosis, 504 h, 24-well agar plates, 3 weeks, read-out: MIC on solid medium, H37Rv-LP.
Data set [4] has as its system M. tuberculosis H37Rv ATCC 27294. The experiment in a line: microbe, parasite or virus in culture. It is filed as cell-based. The note with it: Mycobacterium tuberculosis, 120 h; 5 days; read-out: MIC, H37Rv ATCC 27294 Parental.

Broadly, the IC50 is the concentration that gives 50% inhibition.

Structures are written as SMILES. Values after ≈ are worked out from the molar mass of the structure shown. Some results are limits rather than exact numbers.

Consider `CCc1ccc(CCNc2cc(-c3ccccc3)nc3ncnn23)cc1` [TPN-0006290], for which the IC50 with human HepG2 cells is 49 µM; in data set [1] it was 0.18 ± 0.09 µM; in “in vitro”, 33 µM.

On to `NC[C@H]1O[C@H](O[C@H]2[C@H](O)[C@@H](O[C@H]3O[C@H](CO)[C@@H](O)[C@H](N)[C@H]3O)[C@H](N)C[C@@H]2N)[C@H](O)[C@@H](O)[C@@H]1O` [kanamycin], for which, in the data set with M. tuberculosis, the “Effect on intracellular ATP levels” value is given as “Depletion of ATP was not seen”.

Regarding `COc1ccc(CCNc2cc(-c3ccccc3)nc3ncnn23)cc1` [TPN-0006218], the IC50 is above 100 µM with human HepG2 cells, 0.23 ± 0.08 µM in data set [1] and 65 µM in the data set “in vitro”. Also, the MIC in data set [2] worked out at 2.6 ± 1.3 µM (≈ 0.898 µg/mL).

For `COc1ccc(CCNc2cc(-c3ccccn3)nc3ncnn23)cc1` [TPN-0006239], the IC50 in the data set on human HepG2 cells is above 100 µM; in the data set “in vitro” it was 73 µM. Moreover, the values for the MIC in data set [3], in data set [4] and in data set [2] were 1.6 µM (≈ 0.554 µg/mL), 9.5 ± 3.5 µM (≈ 3.29 µg/mL) and 1.1 ± 0.5 µM (≈ 0.381 µg/mL), respectively.

As to `FC(F)(F)c1ccc(CCNc2cc(-c3ccccc3)nc3ncnn23)cc1` [TPN-0006243], the IC50 with human HepG2 cells and in “in vitro” was above 100 µM throughout. In addition, the MIC in data set [4] came to 2.2 ± 0.9 µM (≈ 0.843 µg/mL); in data set [2], 3.7 ± 2.9 µM (≈ 1.42 µg/mL).

Take `FC(F)(F)c1ccc(CCNc2cc(-c3ccccn3)nc3ncnn23)cc1` [TPN-0006267]: the IC50 was above 100 µM in the data set on human HepG2 cells, 0.21 ± 0.11 µM in data set [1] and above 100 µM in “in vitro”. Besides, the MIC in data set [3] was found to be 1.6 µM (≈ 0.615 µg/mL); in data set [2], 1.4 ± 1.4 µM (≈ 0.538 µg/mL).

With `CCc1ccc(CCNc2cc(-c3ccccn3)nc3ncnn23)cc1` [TPN-0006288], the 50% inhibitory concentration (IC50) is 44 µM in the data set on human HepG2 cells, 0.076 ± 0.032 µM in data set [1] and 23 µM in the data set “in vitro”.

For the compound `CCc1nc2ccc(Cl)cn2c1C(=O)NCc1ccc(N2CCC(c3ccc(OC(F)(F)F)cc3)CC2)cc1` [Molecule Q203, Q203], the “Effect on intracellular ATP levels” value in the data set on M. tuberculosis is listed as “depletion of ATP levels at concentrations lower than the MIC”.

For `Clc1ccc(CCNc2cc(-c3ccccn3)nc3ncnn23)cc1` [TPN-0006273], the IC50 in the data set on human HepG2 cells is 100 µM; in data set [1], 0.19 ± 0.13 µM; in “in vitro” it was 76 µM.

Take `Cc1ccc(CCNc2cc(-c3ccccc3)nc3ncnn23)cc1` [TPN-0006245]: the IC50 in the data set with human HepG2 cells was 58 µM; in the data set “in vitro”, 39 µM. Further, the MIC in data set [2] was 2 ± 1.1 µM (≈ 0.659 µg/mL).
